In patent US11369662B2 (The Medical College of Wisconsin, Inc., priority 2014, dated 2022):
Marks after values point to notes of the source that are not given here.

What was measured:
CXCL12WT = target: T1, CXCL12WT (Homo sapiens, UniProt P48061); conditions: ΔG = −RT ln Kd @ 298 K; calculated from Veldkamp et al. (32); cited from earlier work
T1 construct: made in house

CXCL122 = target: T2, CXCL122 (Homo sapiens, UniProt P48061, A86C/L57C); test: 2D NMR (1H-15N HSQC) titration of CXCR4 peptides into CXCL122; format: binding; conditions: ΔG = −RT ln Kd @ 298 K
T2 construct: made in house
Description: (§1) NMR spectroscopy. All NMR spectra were acquired on a Bruker DRX 600 MHz spectrometer equipped with a ^1H, ^15N, ^13C TXI cryoprobe at 298 K. Experiments were performed with either 50 μM [U-^15N]-CXCL12WT, -CXCL121, or -CXCL122 proteins in a solution containing 25 mM deuterated MES (pH 6.8), 10% (v/v) D2O, and 0.02% (w/v) NaN3. Full-length CXCR41-38 peptide titrations required 20 μM [U-^15N]-CXCL121 and -CXCL122 protein samples. Sulfated CXCR4 peptides were reconstituted at 100 mM in 25 mM deuterated MES, 10% (v/v) D2O, and 0.02% (w/v) NaN3 buffer. Unsulfated CXCR4 peptides were similarly reconstituted to 15 mM. Two separate 4ISIYTSD10 (SEQ ID NO:8) peptide samples were reconstituted at 10 mM and 15 mM peptide in 25 mM deuterated MES, 10% (v/v) D20, 0.02% (w/v) NaN3 buffer, from lyophilized powder.
(§2) Total peptide additions differed for individual peptide titrations but ranged from 0-160 equivalencies. Spectra were processed using in-house scripts and chemical shift tracking was performed using CARA software. Combined ^1H/^15N chemical shift perturbations were calculated as ((5 ΔδH)^2+(ΔδNH)^2)^0.5, where δH and δNH are the amide proton and nitrogen chemical shifts, respectively. Equilibrium dissociation constants (Kd) were determined by non-linear fitting of the combined ^1H/^15NH chemical shift perturbations as a function of peptide concentration to a single-site quadratic equation. For a given interaction, residues with the largest chemical shift perturbations were fitted individually. The resulting Kd values and their respective fitting errors were then averaged to produce the reported affinity and standard deviation for that interaction.

CXCL121 = target: T3, CXCL121 (Homo sapiens, UniProt P48061, I79C/L76C); test: 2D NMR (1H-15N HSQC) titration of CXCR4 peptides into CXCL121; format: binding; conditions: ΔG = −RT ln Kd @ 298 K
T3 construct: made in house
Description: as §1, §2

Compound: CC[C@H](C)[C@H](NC(=O)CNC(=O)[C@H](CCC(=O)O)NC(=O)[C@H](CCSC)NC(=O)[C@H](CCSC)NC(=O)CN)C(=O)N[C@@H](CO)C(=O)N[C@H](C(=O)N[C@@H](Cc1ccc(O)cc1)C(=O)N[C@H](C(=O)N[C@@H](CO)C(=O)N[C@@H](CC(=O)O)C(=O)N[C@@H](CC(N)=O)C(=O)N[C@@H](Cc1ccc(O)cc1)C(=O)N[C@H](C(=O)N[C@@H](CCC(=O)O)C(=O)N[C@@H](CCC(=O)O)C(=O)N[C@@H](CCSC)C(=O)NCC(=O)N[C@@H](CO)C(=O)NCC(=O)N[C@@H](CC(=O)O)C(=O)N[C@@H](Cc1ccc(O)cc1)C(=O)N[C@@H](CC(=O)O)C(=O)N[C@@H](CO)C(=O)N[C@@H](CCSC)C(=O)N[C@@H](CCCCN)C(=O)N[C@@H](CCC(=O)O)C(=O)N1CCC[C@H]1C(=O)N[C@@H](C)C(=O)N[C@@H](Cc1ccccc1)C(=O)N[C@@H](CCCNC(=N)N)C(=O)N[C@@H](CCC(=O)O)C(=O)N[C@@H](CCC(=O)O)C(=O)N[C@@H](CC(N)=O)C(=O)N[C@@H](C)C(=O)N[C@@H](CC(N)=O)C(=O)N[C@@H](Cc1ccccc1)C(=O)N[C@@H](CC(N)=O)C(=O)N[C@@H](CCCCN)C(=O)O)[C@@H](C)O)[C@@H](C)O)[C@@H](C)CC [CXCR41-38]
- ΔG (kcal mol^−1) (CXCL12WT): −7.29* kcal mol^−1
- ΔG (CXCL122): -8.24 kcal/mol
- ΔG (CXCL121): -7.43 kcal/mol
